Measured values from US20090306576A1, “System for Transmembrane Administration of a Permeant and Method for Administering a Permeant” (Pantec Biosolutions AG, priority 2005, published 2009).

Test: Serum concentration over time after transdermal application of the drug patch on microporated skin (FIG. 10a, 10b)
Format: in vivo
Conditions: over a short period of about two hours
Text: The drug is entering the permeation surface by passive diffusion. The amount of drug entering the permeation surface is mainly determined by the permeation surface A(t) over time, as long as the patch 5 provides a sufficient amount of drug. Preferably the patch 5 is able to provide much larger quantities of drug than the permeation surface A(t) is able to absorb. Preferably the patch 5 is able to provide a sufficient concentration level of the permeant at the permeation surface over a period of time during with the permeant is applied. Therefore, the serum concentration as a function of time can be determined by an appropriate poration of the skin 1 with an initial microporation.
FIG. 10a to 10b show the administration of the same drug, for example 100 mg acetylsalicylic acid, the drug being arranged on the skin 1 as disclosed in FIG. 3c. Depending on the permeation surface A(t) as a function of time, the level of the serum concentration as well as the time period within which the drug is released, can be predescribed. In FIG. 10a the permeation surface A(t), not shown in detail, is chosen such that the maximal serum concentration is about 25 g/l over a short period of time of about two hours. […]

## CC(=O)Oc1ccccc1C(=O)O [acetylsalicylic acid]
FIG. 10a, 100 mg acetylsalicylic acid on porated skin (transdermal application TD)
  maximal serum concentration: about 25 g/l
FIG. 10b, fast application (turbo), 100 mg acetylsalicylic acid on porated skin
  maximal serum concentration: about 30 g/l
